PMC10674160, “Synthesis and Preclinical Evaluation of Radiolabeled [^103Ru]BOLD-100” (Pharmaceutics, 2023)

Assay: Tissue distribution in CT26 allograft bearing Balb/c mice (ICP-MS for 3a, gamma counting for 3b)
Type: in vivo
Method: UV/Vis spectra were recorded on a Hitachi U-2000 Dual Beam spectrophotometer. Sample activities were measured on an ISOMED 2010 dose calibrator. For centrifugation during synthesis, a Fisherbrand^TM Mini-Centrifuge from Fisher Scientific was used. Radioactive organ samples were measured on Perkin Elmer Wizard^2 gamma counter. Non-radioactive organ samples were prepared, and the ruthenium content was quantified with ICP-MS. The exact procedure including instrument information can be found in the Supplementary Materials.
For the evaluation of organ distribution, CT26 cells (5 × 10^5 in serum-free medium) were injected subcutaneously into the right flank of Balb/c mice. Animals were controlled for distress development every day and tumor size was assessed regularly using caliper measurements. CT26 cells were inoculated 10 days prior to drug application. Tumor volume was calculated using the formula: (length × width^2); the tumors reached a size of about 500 mm^3. Animals were treated once intravenously (i.v.) via tail-vein injection with 3a or 3b at a dose of 30 mg/kg (dissolved in 0.9% NaCl, 0.6 mg/100 µL/20 g mouse) and a specific activity of 0.64–1.36 MBq/mg for compound 3b. The mice were anesthetized and sacrificed by cervical fracture 4, 24, 48 and 72 h p.i., with n ≥ 2 (3a) and n ≥ 3 (3b) for each time point. Samples of tumor, liver, kidney, muscle, heart, lung, spleen, pancreas, stomach, colon, small intestine, brain, bone, and blood were collected from each mouse. After clotting at RT, serum was isolated from the collected blood samples by centrifugation at 3000 rpm for 10 min twice and stored together with the collected tissue samples at −20 °C. Finally, the ruthenium content was quantified by ICP-MS in the case of the non-radioactive BOLD-100 (3a) and via gamma counting for [^103Ru]BOLD-100 (3b).
An Agilent 7800 ICP-MS (Agilent Technologies, Tokyo, Japan) was being employed, which was equipped with an Agilent SPS 4 autosampler (Agilent Technologies, Tokyo, Japan) and a MicroMist nebulizer at a sample uptake rate of approx. 0.2 mL/min. The Agilent MassHunter software package (Workstation Software, Version C.01.04, 2018) was used for data evaluation. The instrumental parameters […]
Reference source not found..
Ta ble S1: Instrumental parameters for the ICP-MS measurements […]
Spray chamber Scott double-pass
Spraying chamber temp. 2°C
Nebulizer gas 1.06 L min−1
Auxiliary gas 0.90 L min−1
The instrumental limit of quantification (LOQ) was determined at the start of the measurement by […]
LOQ = blank average + 10*STD
Blank corrections were performed for all the samples. Robustness was ensured by tuning the ICP-MS on a daily basis, by using an internal standard (115In) and measuring calibration standards for each […]
Ultrapure water (18.2 MΩ cm, ELGA Water purification system, Purelab Ultra MK 2, UK or 18.2 MΩ cm, Milli-Q Advantage, Darmstadt, Germany), HNO3 (≥69%, Rotipuran Supra, Carl Roth, Karlsruhe, Germany) and H2O2 (30%, Suprapur, Merck, Darmstadt, Germany) were used for all dilutions for ICP-MS measurements. The Ru standard solution was purchased from Labkings (Hilversum, The Netherlands).
For the digestion, approx. 25–50 mg of each organ sample were weighed into PFA-tubes, with 2 mL HNO3 and 100 µL H2O2 being added. The solutions were then placed on a hot plate and heated up for 6 hours using a temperature program with a maximum temperature of 200 °C. After cooling down, the liquids were transferred directly to 15 mL tubes with the remaining solution being removed from the PFA tubes by washing twice with 4 mL ultrapure water, resulting in a final volume of about 10 mL. By writing down the total weight of the resulting liquid, the dilution factor could be calculated.

[1] = Tumor, 24 h p.i., 30 mg/kg i.v.

## [Cl][Ru]([Cl])([Cl])[Cl].[Na+].c1ccc2[nH]ncc2c1.c1ccc2[nH]ncc2c1 [3b, [^103Ru]sodium trans-[tetrachloridobis(indazole)ruthenate(III)]]
Blood cells, 4 h
  tumor/organ ratio Blood cells: 0.4 ± 0.1
Blood cells, 4 h p.i., 30 mg/kg i.v.
  %ID/g tissue Blood cells: 11.98 ± 2.26 %ID/g tissue
Blood cells, 24 h p.i., 30 mg/kg i.v.
  %ID/g tissue Blood cells: 3.41 ± 0.97 %ID/g tissue
Blood cells, 48 h p.i., 30 mg/kg i.v.
  %ID/g tissue Blood cells: 2.94 ± 1.32 %ID/g tissue
Blood cells, 72 h p.i., 30 mg/kg i.v.
  %ID/g tissue Blood cells: 2.19 ± 0.96 %ID/g tissue
4 h
  tumor/organ ratio Bones: 3.4 ± 0.5
  tumor/organ ratio Brain: 10.7 ± 3.3
  tumor/organ ratio Fat: 5.1 ± 2.1
  tumor/organ ratio Heart: 0.8 ± 0.2
  tumor/organ ratio Kidneys: 0.4 ± 0.1
  tumor/organ ratio Liver: 0.2 ± 0.2
  tumor/organ ratio Serum: 0.2 ± 0.0
4 h p.i., 30 mg/kg i.v.
  %ID/g tissue Bones: 1.34 ± 0.30 %ID/g tissue
  %ID/g tissue Brain: 0.46 ± 0.20 %ID/g tissue
  %ID/g tissue Colon: 3.89 ± 0.96 %ID/g tissue
  %ID/g tissue Heart: 5.93 ± 1.10 %ID/g tissue
  %ID/g tissue Kidneys: 12.98 ± 2.87 %ID/g tissue
  %ID/g tissue Liver: 24.41 ± 3.17 %ID/g tissue
  %ID/g tissue Lung: 9.77 ± 1.75 %ID/g tissue
  %ID/g tissue Muscle: 1.05 ± 0.14 %ID/g tissue
  %ID/g tissue Pancreas: 3.75 ± 1.07 %ID/g tissue
  %ID/g tissue Serum: 28.02 ± 4.87 %ID/g tissue
  %ID/g tissue Small intestine: 5.49 ± 1.12 %ID/g tissue
  %ID/g tissue Spleen: 4.63 ± 0.61 %ID/g tissue
  %ID/g tissue Stomach: 2.88 ± 0.82 %ID/g tissue
24 h
  tumor/organ ratio Bones: 5.4 ± 0.6
  tumor/organ ratio Brain: 51.9 ± 4.4
  tumor/organ ratio Fat: 10.3 ± 2.1
  tumor/organ ratio Heart: 2.0 ± 0.2
  tumor/organ ratio Kidneys: 0.5 ± 0.1
  tumor/organ ratio Liver: 0.5 ± 0.1
  tumor/organ ratio Serum: 0.8 ± 0.1
24 h p.i., 30 mg/kg i.v.
  %ID/g tissue Bones: 1.19 ± 0.29 %ID/g tissue
  %ID/g tissue Brain: 0.12 ± 0.02 %ID/g tissue
  %ID/g tissue Colon: 1.88 ± 0.37 %ID/g tissue
  %ID/g tissue Heart: 3.24 ± 0.73 %ID/g tissue
  %ID/g tissue Kidneys: 12.55 ± 0.74 %ID/g tissue
  %ID/g tissue Liver: 13.83 ± 3.38 %ID/g tissue
  %ID/g tissue Lung: 5.89 ± 3.04 %ID/g tissue
  %ID/g tissue Muscle: 0.57 ± 0.19 %ID/g tissue
  %ID/g tissue Pancreas: 1.74 ± 0.39 %ID/g tissue
  %ID/g tissue Serum: 8.57 ± 3.37 %ID/g tissue
  %ID/g tissue Small intestine: 2.49 ± 0.76 %ID/g tissue
  %ID/g tissue Spleen: 3.92 ± 0.66 %ID/g tissue
  %ID/g tissue Stomach: 1.34 ± 0.22 %ID/g tissue
48 h
  tumor/organ ratio Bones: 7.0 ± 0.8
  tumor/organ ratio Brain: 53.3 ± 14.3
  tumor/organ ratio Fat: 13.3 ± 5.0
  tumor/organ ratio Heart: 2.1 ± 0.2
  tumor/organ ratio Kidneys: 0.5 ± 0.1
  tumor/organ ratio Liver: 0.4 ± 0.1
  tumor/organ ratio Serum: 1.3 ± 0.4
48 h p.i., 30 mg/kg i.v.
  %ID/g tissue Bones: 0.90 ± 0.24 %ID/g tissue
  %ID/g tissue Brain: 0.13 ± 0.05 %ID/g tissue
  %ID/g tissue Colon: 2.34 ± 0.72 %ID/g tissue
  %ID/g tissue Heart: 2.98 ± 0.41 %ID/g tissue
  %ID/g tissue Kidneys: 11.79 ± 2.66 %ID/g tissue
  %ID/g tissue Liver: 14.54 ± 2.69 %ID/g tissue
  %ID/g tissue Lung: 5.08 ± 1.93 %ID/g tissue
  %ID/g tissue Muscle: 0.60 ± 0.16 %ID/g tissue
  %ID/g tissue Pancreas: 2.50 ± 1.33 %ID/g tissue
  %ID/g tissue Serum: 5.31 ± 2.78 %ID/g tissue
  %ID/g tissue Small intestine: 2.54 ± 0.95 %ID/g tissue
  %ID/g tissue Spleen: 6.01 ± 2.98 %ID/g tissue
  %ID/g tissue Stomach: 1.60 ± 0.36 %ID/g tissue
72 h
  tumor/organ ratio Bones: 4.9 ± 1.7
  tumor/organ ratio Brain: 54.3 ± 15.1
  tumor/organ ratio Fat: 8.6 ± 3.5
  tumor/organ ratio Heart: 1.5 ± 0.4
  tumor/organ ratio Liver: 0.4 ± 0.1
  tumor/organ ratio Serum: 1.4 ± 0.3
72 h p.i., 30 mg/kg i.v.
  %ID/g tissue Bones: 1.00 ± 0.15 %ID/g tissue
  %ID/g tissue Brain: 0.09 ± 0.05 %ID/g tissue
  %ID/g tissue Colon: 2.19 ± 0.77 %ID/g tissue
  %ID/g tissue Heart: 3.12 ± 0.84 %ID/g tissue
  %ID/g tissue Kidneys: 13.14 ± 5.56 %ID/g tissue
  %ID/g tissue Liver: 12.26 ± 2.85 %ID/g tissue
  %ID/g tissue Lung: 4.47 ± 2.10 %ID/g tissue
  %ID/g tissue Muscle: 0.65 ± 0.17 %ID/g tissue
  %ID/g tissue Pancreas: 2.01 ± 0.75 %ID/g tissue
  %ID/g tissue Serum: 3.63 ± 1.78 %ID/g tissue
  %ID/g tissue Small intestine: 1.92 ± 0.47 %ID/g tissue
  %ID/g tissue Spleen: 5.08 ± 1.56 %ID/g tissue
  %ID/g tissue Stomach: 1.69 ± 0.64 %ID/g tissue
Tumor, 4 h p.i., 30 mg/kg i.v.
  %ID/g tissue Tumor: 4.49 ± 1.03 %ID/g tissue
[1]
  %ID/g tissue Tumor: 6.39 ± 1.44 %ID/g tissue
  tumor uptake (highest level): 6.4 %ID/g
Tumor, 48 h p.i., 30 mg/kg i.v.
  %ID/g tissue Tumor: 6.19 ± 1.26 %ID/g tissue
Tumor, 72 h p.i., 30 mg/kg i.v.
  %ID/g tissue Tumor: 4.77 ± 1.68 %ID/g tissue
